Experimental data published in US20250313533A1, “QUINOLINE CARBOXYLIC ACID ESTER COMPOUND AND PREPARATION METHOD AND USE THEREOF” (priority 2019, published 2025).
Values joined by “and” are separate entries in the source; they are usually repeats but may differ in a detail not shown here. Equal values may be shown once. Read-outs that look alike come from different tables or passages of the source.

Tests used:
[1] = test system: pathogenic bacteria causing bacterial angular leaf spot in cucumbers; assay: In vitro bactericidal activity, bacterial angular leaf spot in cucumbers; assay type: cell-based, pseudomonas
[2] = test system: pathogenic bacteria causing bacterial wilt in tobacco; assay: whole plant or invertebrate; assay type: cell-based, ralstonia; settings: in vitro
[3] = test system: pathogenic bacteria causing black shank in potatoes; assay: In vitro bactericidal activity, black shank in potatoes; assay type: cell-based
[4] = test system: pathogenic bacteria causing stem rot in sweet potatoes; assay: In vitro bactericidal activity, stem rot in sweet potatoes; assay type: cell-based, dikia
[5] = test system: pathogenic bacteria causing bacterial blight in rice; assay: whole plant or invertebrate; assay type: cell-based, xanthomonas; settings: in vitro
[6] = test system: pathogenic bacteria causing fruit blotch in watermelons; assay: In vitro bactericidal activity, fruit blotch in watermelons; assay type: cell-based, acidovorax
[7] = test system: pathogenic bacteria causing black rot in Chinese cabbages; assay: In vitro bactericidal activity, black rot in Chinese cabbages; assay type: cell-based, xanthomonas
[8] = test system: pathogenic bacteria causing bacterial wilt in cassava; assay: organism not typed; assay type: cell-based; settings: in vitro
[9] = test system: pathogenic bacteria causing fire blight in pears; assay: In vitro bactericidal activity, fire blight in pears; assay type: cell-based, erwinia
black shank in potatoes = assay: Living crops in vivo protective activity, potatoes (root irrigation)
Procedure: Root irrigation was carried out on the potatoes for tests according to the designed concentration of the agents. The dosage for each plant was 200 mL and was kept consistent (also for the control). The black shank bacteria were inoculated on the second day after the application. The results were investigated according to the disease condition.

[10] = test system: soft rot in Chinese cabbages; assay: Field test for controlling soft rot in Chinese cabbages; assay type: in vivo, Chinese cabbage; settings: 7 days after the last application
Procedure: (§1) In October 2019, tests were carried out in fields of Chinese cabbage, wild cabbage and lettuce in Tai'an, Shandong. The doses of the compounds 152 and 282 of the present disclosure (both prepared as dispersible granules with a mass fraction of 10%) used were 16.87 ga.i./hm^2 and 33.75 ga.i./hm^2, and the control agents used were 3% (by weight) wettable powder of zhongshengmycin and 33.5% (by weight) aqueous suspension of oxine-copper (both were commercially available). The dose of zhongshengmycin was 67.5 ga.i./hm^2, and the dose of oxine-copper was 337.5 ga.i./hm^2. Test and control agents were arranged in randomized blocks. Plot area was 15 m^2. Treatment was repeated 3 times. The route of application was spraying on stem and leaves. The application was performed 2 times in total at an interval of 7 days, and the efficacy investigation was performed 7 days after the last application. During the investigation, sampling was carried out at 5 points in each plot. Disease conditions of soft rot in Chinese cabbages, soft rot in lettuces and soft rot in wild cabbages were recorded according to the relevant technical standard of Pesticide Guidelines for the Field Efficacy Trials GB/T17980.114-2004, and the incidence rate of plants was calculated to further evaluate the control effect.

[11] = test system: soft rot in wild cabbages; assay: Field test for controlling soft rot in wild cabbages; assay type: in vivo, wild cabbage; settings: 7 days after the last application
Procedure: as §1

soft rot in lettuces = assay: Field test for controlling soft rot in lettuces; assay type: in vivo, lettuce; settings: 7 days after the last application
Procedure: as §1

[12] = test system: bacterial wilt in tobacco; settings: seed soaking
[13] = test system: stem rot in sweet potatoes
[14] = test system: fruit blotch in watermelons
[15] = test system: soft rot in Chinese cabbages
[16] = dose 337.5 g a.i./hm^2, 2 sprays
[17] = dose 67.5 g a.i./hm^2, 2 sprays

Compound | inhibitory rate ([1]; dosage 1 ppm) [%] | inhibitory rate ([1]; dosage 5 ppm) [%] | inhibitory rate ([2]; dosage 1 ppm) [%] | inhibitory rate ([2]; dosage 5 ppm) [%] | inhibitory rate ([3]; dosage 1 ppm) [%] | inhibitory rate ([3]; dosage 5 ppm) [%] | inhibitory rate ([4]; dosage 1 ppm) [%] | inhibitory rate ([4]; dosage 5 ppm) [%] | inhibitory rate ([5]; dosage 1 ppm) [%] | inhibitory rate ([5]; dosage 5 ppm) [%] | inhibitory rate ([6]; dosage 1 ppm) [%] | inhibitory rate ([6]; dosage 5 ppm) [%] | inhibitory rate ([7]; dosage 1 ppm) [%] | inhibitory rate ([7]; dosage 5 ppm) [%] | inhibitory rate ([8]; dosage 1 ppm) [%] | inhibitory rate ([8]; dosage 5 ppm) [%] | inhibitory rate ([9]; dosage 1 ppm) [%] | inhibitory rate ([9]; dosage 5 ppm) [%] | efficacy against black shank in potatoes (black shank in potatoes; dosage 5 ppm) [%] | efficacy against black shank in potatoes (black shank in potatoes; dosage 10 ppm) [%] | other results
[Cu+2].[O-]c1cccc2cccnc12.[O-]c1cccc2cccnc12 [oxine-copper, reference compound] | 0 | 2 | 0 | 5 | 0 | 3 | 2 | 7 | 9 | 16 | 0 | 3 | 0 | 5 | 7 | 15 | 0 | 3 | 11 | 22 | Control effect (%) [10, 16]: 13%; Control effect (%) [11, 16]: 11%; Control effect (%) (soft rot in lettuces; [16]): 9%; efficacy against bacterial wilt in tobacco ([12]; dosage 5 ppm): 5%; efficacy against bacterial wilt in tobacco ([12]; dosage 10 ppm): 11%; efficacy against stem rot in sweet potatoes ([13]; in vivo): 20% and 13%; efficacy against fruit blotch in watermelons ([14]; in vivo): 22% and 15%; efficacy against soft rot in Chinese cabbages ([15]; in vivo): 16% and 6%
zhongshengmycin [reference compound] | 21 | 48 | 28 | 51 | 38 | 55 | 25 | 46 | 30 | 48 | 29 | 52 | 19 | 46 | 32 | 51 | 23 | 43 | 17 | 25 | Control effect (%) [10, 17]: 72%; Control effect (%) [11, 17]: 69%; Control effect (%) (soft rot in lettuces; [17]): 65%; efficacy against bacterial wilt in tobacco ([12]; dosage 5 ppm): 24%; efficacy against bacterial wilt in tobacco ([12]; dosage 10 ppm): 35%; efficacy against stem rot in sweet potatoes ([13]; dosage 5 ppm, seed soaking): 23%; efficacy against stem rot in sweet potatoes ([13]; dosage 10 ppm, seed soaking): 38%; efficacy against fruit blotch in watermelons ([14]; dosage 5 ppm, seed soaking): 19%; efficacy against fruit blotch in watermelons ([14]; dosage 10 ppm, seed soaking): 33%; efficacy against soft rot in Chinese cabbages ([15]; dosage 5 ppm, sprayed cut leaves, 48 h incubation): 23%; efficacy against soft rot in Chinese cabbages ([15]; dosage 10 ppm, sprayed cut leaves, 48 h incubation): 39%
